Data from patent US20020037327A1, “Treatment for cancer and compounds for use therein” (priority 1997, published 2002).
Read-outs that look alike come from different tables or passages of the source.

Columns and labels:
[1] = Water solubility of the prepared compound; assay type: physicochemical
Description: Bismuth iodiscorbate was prepared by dissolving 58 g of concentrated hydriodic acid (56.1 weight-percent) into 350 mls of water. Next, 5 g of 0.0085 molar bismuth (III) iodide was crushed in a mortar, and then dissolved in the solution. Next, 2.3 g of 0.0085 molar strontium hydroxide octahydrate was stirred into the solution, followed by the addition of 4.5 g of 0.026 molar L-ascorbic acid. The mixture was stirred for three hours, then stripped to dryness on a rotary evaporator. The residue then was redissolved in 500 ml water and filtered, and again stripped on a rotary evaporator. This process assisted in the removal of excess hydriodic acid. The residue again was dissolved in 500 ml of water, filtered, and stripped to dryness on a rotary evaporator. An orange solid then was removed from the flask and bottled. This procedure yielded 9.1 g of what is designated as SrBiI2[ascorbate]3. This compound was water soluble.
Potassium iodiscorbate was prepared by adding 6.5 g of 0.12 molar potassium hydroxide and 16.0 g of 0.06 molar strontium hydroxide octahydrate to 500 ml water in a 1000-ml beaker, resulting in a white, cloudy solution. The mixture was stirred for about 2 hours. Next, 13.0 g of 0.06 molar hydriodic acid (56 weight-percent) was added, and the mixture was stirred for three hours. Next, […] of 0.18 molar L-ascorbic acid was added, turning the mixture clear in about 5 minutes. The mixture then was stirred for another 0.5 hour. The water was removed under vacuo, and the residue dried under vacuum for about 8 hours. The solids were removed from the flask and bottles. The structure is designated as [ascorbate]2SrK[ascorbate]KI. This compound also was water soluble.
Zinc iodiscorbate was prepared by adding 4.0 g of 0.05 molar zinc oxide and 13.3 g of 0.05 molar strontium hydroxide octahydrate to 500 ml of distilled water, resulting in a white suspension. The mixture then was treated with 11.2 g of 0.05 molar concentrated hydriodic acid and stirred for two hours. A white suspension still remained. […]

[2] = test system: MCF-7 breast carcinoma cells; assay: In vitro percent cell survival, crystal violet assay, breast carcinoma cells; assay type: cell-based, human; details: 48 hours
Description: (§1) Three compounds of the present invention, specifically, bismuth iodiscorbate, potassium iodiscorbate, and zinc iodiscorbate, were tested in vitro on both tumorous and normal human cells. Three cell lines were obtained through the American Type Culture Collection (Rockville, Maryland). The first cell line, designated HUV-EC-C, consisted of human umbilical cord vein normal endothelial cells. These noncancerous cells were used as a control. The second cell line, MCF-7, consisted of breast carcinoma cells. The third cell line, ME-180, consisted of uterine cervix carcinoma cells.
(§2) The data shown in FIGS. 5-7 were derived by the following steps. HUV-EC-C was cultured in a solution of 90% F12 medium (GIBCO-BRL, Grand Island, N.Y.) and 10% fetal bovine serum (Hyclone, Logan, Utah) with 100 μg/ml heparin and 30 μg/ml ECGF (endothelial cell growth factor; Sigma Chemical Co., St. Louis, Mo.). MCF-7 and ME-180 were grown in a solution of 90% minimal essential medium (GIBCO-BRL) and 10% fetal bovine serum (Hyclone). The cells were grown to approximately 90% confluence in T25 cell culture flasks (Falcon-Becton Dickinson Labware, Franklin Lakes, N.J.) in a 37° C. humidified incubator in the presence of 5% C02−95% air.
(§3) Flasks were removed from the incubator and placed in a sterile laminar flow hood. All cell manipulation procedures were performed in this sterile hood. The flasks were rinsed in 5 ml of sterile phosphate-buffered saline (PBS; Sigma) and the monolayer of cells was released from the flask by adding 5 ml of 1X trypsin-EDTA (Sigma) in PBS. The flask was capped and placed back in the incubator for 10 minutes. The flasks were removed from the incubator, and cells plus trypsin-EDTA solution were transferred to a 15 ml centrifuge tube (Falcon) and 5 ml of cell growth medium was added. The tubes were centrifuged at 500 g for 10 minutes at room temperature. The tubes then were placed back in the hood and supernatant (top liquid) was removed with a sterile pipette (Falcon). […] The cell density in the hemacytometer was determined by counting cells visible by microscopy. […]

[3] = test system: ME-180 uterine cervix carcinoma cells; assay: In vitro percent cell survival, crystal violet assay, uterine cervix carcinoma cells; assay type: cell-based, human; details: 48 hours; for survival of human cervical carcinoma cells (ME-180): concentration not given
Description: as §1, §2, §3

[4] = test system: cells at high density (near confluence in culture dishes); assay: Treatment of cells at high density (near confluence); assay type: cell-based, human; details: 400 μg/ml
Excerpt: FIG. 5 depicts percent cell survival against various concentrations of potassium iodiscorbate.

[5] = test system: HUV-EC-C human umbilical cord vein normal endothelial cells; assay: In vitro percent cell survival, crystal violet assay, normal endothelial cells (control); assay type: cell-based; details: 48 hours
Description: as §1, §2
Flasks were removed from the incubator and placed in a sterile laminar flow hood. […] The cell density in the hemacytometer was determined by counting cells visible by microscopy. […]

mice = assay: In vivo toxicology study in mice
Description: A toxicology study also was performed. Specifically, the toxicology of potassium iodiscorbate was evaluated through in vivo tests on mice. Potassium iodiscorbate was prepared as a stock solution of 175 mg/ml in saline and administered to mice. Injections consisted of a volume not exceeding 0.1 ml administered through the tail vein (intravenously), or a volume not exceeding 0.2 ml (by an intraperitoneal route). Doses up to 1000 mg/kg (intraperitoneal injection) and 500 mg/kg (intravenous injection) caused no apparent toxicity. This dose should permit use of the compounds of the present invention in concentrations (refer to FIGS. 5-7) that approximate those necessary for selective inhibition of malignant cell growth.

Substance | solubility in water [1] | survival of human breast cancer cells (MCF-7) ([2]; concentration not given) | survival of human cervical carcinoma cells (ME-180) [3] | effect on cells at high density [4] | solubility in water ([1]; product as prepared) | growth of normal human endothelial cells (HUV-EC-C) ([5]; any concentration tested) | doses that caused no apparent toxicity (mice; intraperitoneal injection) | doses that caused no apparent toxicity (mice; intravenous injection (tail vein)) | survival of breast carcinoma cells (MCF-7) ([2]; concentrations greater than 100 μg/ml) | normal cell growth (HUV-EC-C) ([5]; about 80-100 μg/ml) | survival of breast carcinoma cells (MCF-7) with respect to normal cell growth ([2]; about 80-100 μg/ml) | survival of cervical carcinoma cells (ME-180) with respect to normal cell growth ([3]; about 80-100 μg/ml)
Bismuth iodiscorbate | water soluble | effective in reducing the survival | effective in reducing the survival |  |  |  |  |  |  |  |  | 
Potassium iodiscorbate |  |  | reduced dramatically the survival | little effect | water soluble | did not affect the growth | up to 1000 mg/kg | ≤ 500 mg/kg | reducing dramatically the survival |  |  | 
Zinc iodiscorbate |  |  |  |  | water soluble |  |  |  |  | without serious reduction of normal cell growth | reduced dramatically | reduced dramatically
